Test results published in patent publication US10822349B2, “Macrocyclic purines for the treatment of viral infections” (JANSSEN SCIENCES IRELAND UNLIMITED COMPANY, priority 2012, dated 2020).

Tests used:
[1] = system: interferon production in human PBMC; experiment: Interferon production in human PBMC, read out on HEK-ISRE-luc reporter cells; format: cell-based; conditions: lowest effective concentration, PBMC supernatant after overnight incubation transferred to HEK-ISRE-luc cells; for minimal effective concentration: Homo sapiens, PBMC, 24 h, read-out: PBMC HEK-ISRE-luc (LEC; μM); for PBMC HEK-ISRE-luc (LEC; μM): 24 hours
Experimental: Activation of human TLR7 results in robust production of interferon by plasmacytoid dendritic cells present in human blood. The potential of compounds to induce interferon was evaluated by determination of interferon in the conditioned media from peripheral blood mononuclear cells (PBMC). The presence of interferon in the samples was determined, using an interferon reporter cell line stably expressing an interferon-stimulated responsive elements (ISRE)-luc reporter construct. The ISRE element with sequence GAAACTGAAACT (SEQ ID: 1) is highly responsive to the STAT1-STAT2-IRF9 transcription factor, which becomes activated upon binding of IFN-I to the IFN receptor. Briefly, PBMCs were prepared from buffy coats of at least two donors using a standard Ficoll centrifugation protocol. Isolated PBMCs were resuspended in RPMI medium supplemented with 10% human AB serum and 2×10^5 cells/well were dispensed into 384-well plates containing compounds (70 μL total volume). After overnight incubation of the PBMCs with the compounds, 10 μL of supernatant was transferred to 384-well plates containing 5×10^3 HEK-ISRE-luc cells/well in 30 μL (plated the day before). Following 24 hours of incubation, activation of the ISRE elements was measured by assaying luciferase activity using 40 μL/well Steady Lite Plus substrate (Perkin Elmer) and measured with ViewLux ultraHTS microplate imager (Perkin Elmer). The stimulating activity of each compound on the HEK-ISRE-luc cells was reported as LEC. The LEC in turn indicates the degree of ISRE activation on transfer of a defined amount of PBMC culture medium. Recombinant interferon alfa-2a (Roferon-A) was used as a standard control compound.

human TLR7 = biological target: T1, human TLR7 (Homo sapiens, UniProt Q9NYK1); experiment: TLR7 cellular reporter assay (HEK293 TLR7-NFκB-luc); format: cell-based; conditions: lowest effective concentration; HEK293 transiently transfected with TLR7 and NFκB-luc; 6 hours incubation
T1 construct: expressed in transfected cells; host or cells: HEK293
T1 sequence (Q9NYK1 27-1049): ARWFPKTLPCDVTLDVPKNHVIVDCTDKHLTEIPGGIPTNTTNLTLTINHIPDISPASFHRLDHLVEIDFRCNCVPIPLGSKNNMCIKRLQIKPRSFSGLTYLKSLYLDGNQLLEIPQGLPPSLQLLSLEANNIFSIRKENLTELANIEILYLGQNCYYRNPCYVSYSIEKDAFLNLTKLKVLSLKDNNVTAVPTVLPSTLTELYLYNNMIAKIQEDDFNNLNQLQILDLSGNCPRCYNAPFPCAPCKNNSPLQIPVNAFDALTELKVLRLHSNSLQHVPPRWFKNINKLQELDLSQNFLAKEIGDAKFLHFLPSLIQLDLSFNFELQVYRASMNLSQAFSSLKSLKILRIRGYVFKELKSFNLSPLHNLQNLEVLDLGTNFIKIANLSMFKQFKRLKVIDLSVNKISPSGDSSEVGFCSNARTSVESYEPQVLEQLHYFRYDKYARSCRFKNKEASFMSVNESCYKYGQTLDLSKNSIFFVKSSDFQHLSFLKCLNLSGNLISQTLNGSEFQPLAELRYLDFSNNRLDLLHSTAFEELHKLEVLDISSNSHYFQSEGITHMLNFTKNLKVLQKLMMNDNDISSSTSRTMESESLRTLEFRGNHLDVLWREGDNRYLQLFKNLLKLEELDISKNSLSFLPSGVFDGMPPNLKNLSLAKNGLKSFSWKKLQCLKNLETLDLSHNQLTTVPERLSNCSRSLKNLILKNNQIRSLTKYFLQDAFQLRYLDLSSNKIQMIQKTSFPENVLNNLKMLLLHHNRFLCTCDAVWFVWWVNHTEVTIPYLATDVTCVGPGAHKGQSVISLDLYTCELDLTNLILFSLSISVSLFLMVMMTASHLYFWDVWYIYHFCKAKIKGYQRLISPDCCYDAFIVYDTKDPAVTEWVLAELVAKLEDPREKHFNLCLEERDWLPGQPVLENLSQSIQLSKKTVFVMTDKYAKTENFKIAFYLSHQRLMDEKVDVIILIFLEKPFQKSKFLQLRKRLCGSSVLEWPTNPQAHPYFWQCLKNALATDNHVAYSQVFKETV
Experimental: The ability of compounds to activate human TLR7 and TLR8 was assessed in a cellular reporter assay using HEK293 cells transiently transfected with a TLR7 or TLR8 expression vector and NFκB-luc reporter construct. Briefly, HEK293 cells were grown in culture medium (DMEM supplemented with 10% FCS and 2 mM Glutamine). For transfection of cells in 10 cm dishes, cells were detached with Trypsin-EDTA, transfected with a mix of CMV-TLR7 or TLR8 plasmid (750 ng), NFκB-luc plasmid (375 ng) and a transfection reagent and incubated 48 hours at 37° C. in a humidified 5% CO2 atmosphere. Transfected cells were then detached with Trypsin-EDTA, washed in PBS and resuspended in medium to a density of 1.67×10^5 cells/mL. Thirty microliters of cells were then dispensed into each well in 384-well plates, where 10 μL of compound in 4% DMSO was already present. Following 6 hours incubation at 37° C., 5% CO2, the luciferase activity was determined by adding 15 μl of Steady Lite Plus substrate (Perkin Elmer) to each well and readout performed on a ViewLux ultraHTS microplate imager (Perkin Elmer). Dose response curves were generated from measurements performed in quadruplicates. Lowest effective concentrations (LEC) values, defined as the concentration that induces an effect which is at least two fold above the standard deviation of the assay, were determined for each compound.

| Structure (SMILES) | minimal effective concentration [1] | HEK293 TLR7-NFκB-luc (LEC; μM) (human TLR7) | PBMC HEK-ISRE-luc (LEC; μM) [1] |
| --- | --- | --- | --- |
| Nc1nc2nc3c1nc(O)n3Cc1ccc(cc1)C/C=C/CCCCO2 [Compound 30] | 0.56 µM | 0.87 µM |  |
| COc1ccc2cc1C/C=C\CCOc1nc(N)c3nc(O)n(c3n1)C2 [Compound 67] | 0.0028 µM | 0.0024 µM |  |
| Nc1nc2nc3c1nc(O)n3Cc1cccc(c1)CCCCCN2 [Compound 31] | 0.263 µM | 1.36 µM |  |
| Nc1nc2nc3c1nc(O)n3Cc1cccc(c1)C/C=C\CCO2 [Compound 17] |  | 0.067 µM | 0.013 µM |
| Nc1nc2nc3c1nc(O)n3Cc1ncccc1/C=C\CCCCO2 [Compound 42] | 0.5 µM | 2.28 µM |  |
| Nc1nc2nc3c1nc(O)n3Cc1cccc(c1)C/C=C/CCN2 [Compound 29] | 0.15 µM | 0.81 µM |  |
| Nc1nc2nc3c1nc(O)n3Cc1cccc(c1)OCCCCCCO2 [Compound 43] | 0.034 µM | 0.11 µM |  |
| Nc1nc2nc3c1nc(O)n3Cc1cccc(c1)OCCCCCC(CO)N2 (stereo not shown) [Compound 19] | 0.14 µM | 2.24 µM |  |
| Nc1nc2nc3c1nc(O)n3Cc1cccc(c1)C/C=C\CCO2 [Compound 1] |  | 0.154 µM | 0.081 µM |
| Nc1nc2nc3c1nc(O)n3Cc1cccc(n1)OC/C=C/CCCO2 [Compound 49] | 0.16 µM | 0.21 µM |  |
| Nc1nc2nc3c1nc(O)n3Cc1ncccc1OCCCCCO2 [Compound 50] | 0.24 µM | 1.19 µM |  |
| Nc1nc2nc3c1nc(O)n3CCc1cccc(c1)OC/C=C/CCO2 [Compound 86] | 2.43 µM | 7.91 µM |  |
| Nc1nc2nc3c1nc(O)n3Cc1ccc(nc1)OCC(=O)NCCCO2 [Compound 6] | 1.73 µM | >10 µM |  |
| Nc1nc2nc3c1ncn3Cc1ncccc1OC/C=C\CCO2 [Compound 79] | 1.78 µM | 2.34 µM |  |
| Nc1nc2nc3c1nc(O)n3Cc1cccc(n1)CC/C=C\CCO2 [Compound 46] | 1.13 µM | 6.49 µM |  |
| Nc1nc2nc3c1nc(O)n3Cc1ccc(cc1)C/C=C\CCCCO2 [Compound 36] | 0.68 µM | 12.45 µM |  |
| Nc1nc2nc3c1nc(O)n3Cc1cccc(c1)C/C=C/CCCO2 [Compound 16] | 0.11 µM | 0.375 µM |  |
| COc1c2cccc1OC/C=C/COc1nc(N)c3nc(O)n(c3n1)C2 [Compound 61] | 4.98 µM | 4.7 µM |  |
| Nc1nc2nc3c1nc(O)n3Cc1cccc(c1)OCCCCCN2 [Compound 14] | 0.51 µM | 1.68 µM |  |
| Nc1nc2nc3c1nc(O)n3Cc1cc(ccn1)OC/C=C\CCO2 [Compound 37] | 0.12 µM | 0.8 µM |  |
